This is an account of results in publication PMC9181887, “In Vitro Antithrombotic, Hematological Toxicity, and Inhibitor Studies of Protocatechuic, Isovanillic, and p-Hydroxybenzoic Acids from Maclura tricuspidata (Carr.) Bur” (Molecules, 2022).

The subject of one test is human plasma. The test can be described thus: Coagulation assay, APTT. In kind it is biochemical. The note with it: for APTT, fold of control / activated partial thromboplastin time (APTT): 100 μg; for activated partial thromboplastin time (APTT): control 39.5 ± 1.5 s, p < 0.01. As for the experimental part:
A coagulation assay was performed to evaluate the prolongation potential of the compounds in blood coagulation by measuring APTT, PT, and TT, as previously described. After pretreatment of the compounds with human plasma for 10 min, APTT, PT, and TT were determined by a coagulometer (Thrombostat 1) manufactured by Behnk Elektronik, Germany.

The subject of test [1] is fibrin polymers and clots (fibrinogen, thrombin, CaCl2). The test can be described thus: Turbidity assay of fibrin polymer/clot formation. In kind it is biochemical, Human. The note with it: 1, 2, 5, 10, and 20 μg; 2000 s. The protocol: Inhibition of fibrin clot formation was determined using a turbidity assay as previously described. The reaction mixtures were prepared by the addition of the compounds, 10 IU u-PA as a positive control (PC), or vehicle as a negative control (NC) 2 in a volume of 100 μL of 5 mM CaCl2, 0.5 U/mL of thrombin, and […] fibrinogen in 20 mM Tris-HCl (pH 7.4). The mixture was incubated for 5 min at 37 °C, and turbidity was monitored at 405 nm every 1 min for 2000 s using a microplate reader (Molecular Devices, Sunnyvale, CA, USA). The clot density was presented as a percentage of inhibition.

The test system of test [2] is fibrin clot formation (fibrinogen, thrombin, CaCl2). The test can be described thus: Fibrin clot assay. Particulars: 100 μg. In kind it is biochemical, Human. As for the experimental part: The fibrin clot assay, as previously described, was performed to evaluate the improvement in blood circulation by the attenuation of fibrin formation. First, 1.5% fibrinogen, 0.5 U/mL of thrombin, and 5 mM CaCl2 in 20 mM Tris-HCl in a volume of 100 μL were added to different concentrations of compounds or 10–20 IU u-PA as PC 1–2. These prepared fibrin clot mixtures were incubated at 37 °C for 30 min. Each tube of the fibrin clot mixture was photographed, and the density of the clots was measured using the ImageJ 1.46 b image analysis software (National Institutes of Health, Bethesda, MD, USA). Inhibitory activity was calculated as follows:Inhibitory activity (%) = [1 − (density control without sample−density sample)/density control without sample] × 100

The target of a further test is T1, human FXIIIa (Homo sapiens, UniProt P00488).
T1 construct: purchased Sigma-Aldrich
T1 sequence (P00488 39-732 limits assumed): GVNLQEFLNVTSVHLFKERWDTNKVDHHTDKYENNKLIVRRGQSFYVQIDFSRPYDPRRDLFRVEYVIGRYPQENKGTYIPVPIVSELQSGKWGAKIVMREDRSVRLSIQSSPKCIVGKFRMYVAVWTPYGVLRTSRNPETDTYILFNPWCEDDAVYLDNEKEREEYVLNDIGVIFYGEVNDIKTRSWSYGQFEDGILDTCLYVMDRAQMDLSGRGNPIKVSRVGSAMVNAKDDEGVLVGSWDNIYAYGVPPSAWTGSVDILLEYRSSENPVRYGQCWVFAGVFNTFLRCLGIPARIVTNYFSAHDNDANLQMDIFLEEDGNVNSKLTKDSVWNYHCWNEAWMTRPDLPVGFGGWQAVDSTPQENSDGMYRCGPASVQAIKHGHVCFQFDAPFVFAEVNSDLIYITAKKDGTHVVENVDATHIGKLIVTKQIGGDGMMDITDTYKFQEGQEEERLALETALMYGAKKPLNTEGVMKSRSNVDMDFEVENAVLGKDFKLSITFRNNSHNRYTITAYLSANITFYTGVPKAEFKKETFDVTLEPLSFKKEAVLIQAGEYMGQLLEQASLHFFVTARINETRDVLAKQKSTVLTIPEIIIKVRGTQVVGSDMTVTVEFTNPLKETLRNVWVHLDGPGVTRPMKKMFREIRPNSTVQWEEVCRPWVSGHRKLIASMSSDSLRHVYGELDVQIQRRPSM
The test can be described thus: FXIIIa activity and kinetic/inhibitor assay. In kind it is biochemical. The note with it: for FXIIIa activity: 1–20 μg, vs control, p < 0.05; for IC50 / Ki / Kik/Kiv / Kcat / Vmax: FXIIIa; for inhibition type against FXIIIa: from Kik/Kiv ratio and Lineweaver–Burk plots. The protocol: To determine the thrombin activity, various concentrations of compounds were treated with 1 U human thrombin in 100 μL of 20 mM Tris-HCl, as previously described. The reaction solutions were incubated for 15 min at 37 °C. After the incubation, 1 mM chromogenic substrate for thrombin (S-2238, HD-Phe-Pip-Arg-p-nitroanilide) was added and incubated for 1 h at 37 °C. Absorbance was measured at 405 nm to determine the enzymatic activity. To determine FXa activity, various concentrations of the compounds were mixed with 1 U human FXa in 20 mM Tris-HCl (pH 7.4) in volume of 100 μL, followed by incubation for 15 min at 37 °C. After adding 1 mM N-benzoyl-Ile-Glu-Gly-Arg-p-nitroanilide, a highly specific chromogenic peptide substrate for FXa, the reaction solutions were incubated for 1 h at 37 °C. The residual activity of FXa was measured at 405 nm and is presented as a percentage of inhibition. To investigate FXIIIa activity, various concentrations of the compounds were mixed with 1 U human FXIIIa in 20 mM Tris-HCl (pH 7.4) in a volume of 100 μL, followed by, incubation for 15 min at 37 °C as previously described. The residual activity of FXIIIa was measured using casein and fibrinogen-HRP, according to the manufacturer’s instructions, and was presented as a percentage of inhibition. The negative control was generated by treatment with only thrombin, FXa, or FXIIIa without treatment with any compound.
Kinetic assays were performed using PA, IVA, and 4-HA for procoagulant proteases (thrombin and FXa) and fibrinoligase (FXIIIa). The kinetic constants were calculated using Lineweaver–Burk plots based on the initial reaction rates with different concentrations (0.1, 0.5, 1, and 2 mM) of each substrate for thrombin, FXa, and FXIIIa treated with or without the compounds (0.065, 0.13, 0.33, 0.65, and 1.30 mM [1–20 μg]) in a total volume of 100 μL. The Michaelis–Menten constant (Km) and maximal velocity (Vmax) were calculated from the x and y intercepts, respectively. […] The median inhibitory concentration (IC50) was defined as the concentration required to reach a 50% reduction in the activity of the three target factors. The Kik and Kiv inhibition constants were calculated using a previously described method. The inhibition type of the compounds against the three target factors was evaluated according to a previously described inhibition type definition.

Each structure is given as a SMILES string.

Usually IC50 stands for the concentration needed to halve the response being measured. A high value points to weaker potency in that assay. The Ki is a measure of affinity in units of concentration, obtained from inhibition or displacement. High values mean a looser hold on the target, low ones a stronger hold on the target.

Regarding `O=C(O)c1ccc(O)cc1` [4-HA, 4-hydroxybenzoic acid], in the test with human plasma, the “APTT, fold of control” value is on record as 1.53 fold and the “activated partial thromboplastin time (APTT)” value was 60.3 ± 5.6 s. Further, in test [1], the “fibrin polymer/clot formation (turbidity at 405 nm)” value (from here on “fibrin polymer/clot formation”) was “dose-dependently inhibited”. Further, in test [2], the “inhibition of fibrin clot formation” value is on record as 67.1 ± 1.3%. Also, on human FXIIIa, the FXIIIa activity entry was “significant reductions”, the half-maximal inhibitory concentration (IC50) is 1960 µM, the Ki amounted to 1960 µM and the Kik/Kiv came to 6005.6. Also, at human FXIIIa, the “inhibition type against FXIIIa” value is given as “non-competitive inhibition type”. Further, at human FXIIIa (compound 0.065 mM (1 μg)), the Kcat came to 88.6 ± 0.10 s⁻¹ and the Vmax is on record as 0.142 ± 0.04 mU/min. Besides, on human FXIIIa (compound 0.13 mM (2 μg)), the Kcat came to 87.7 ± 0.09 s⁻¹ and the Vmax is listed as 0.141 ± 0.04 mU/min. Also, on human FXIIIa (compound 0.325 mM (5 μg)), the Kcat was 77.2 ± 0.05 s⁻¹ and the Vmax was determined as 0.124 ± 0.03 mU/min. For the same molecule, at human FXIIIa (compound 0.65 mM (10 μg)), the Kcat is 70.5 ± 0.07 s⁻¹ and the Vmax worked out at 0.113 ± 0.03 mU/min. Also, on human FXIIIa (compound 1.3 mM (20 μg)), the Kcat came out at 62.0 ± 0.06 s⁻¹ and the Vmax turned out to be 0.099 ± 0.04 mU/min.

With `O=C(O)c1ccc(O)c(O)c1` [PA, protocatechuic acid], in the test with human plasma, the “APTT, fold of control” value amounted to 1.33 fold and the “activated partial thromboplastin time (APTT)” value worked out at 52.5 ± 4.4 s. Besides, the “fibrin polymer/clot formation” value in test [1] is recorded as “dose-dependently inhibited”. In addition, in test [2], the “inhibition of fibrin clot formation” value was found to be 66.9 ± 3.3%. Also, at human FXIIIa, the FXIIIa activity entry is listed as “significant reductions”, the IC50 amounted to 1640 µM, the inhibition constant Ki was 1630 µM and the Kik/Kiv is 6.1. Besides, the “inhibition type against FXIIIa” value on human FXIIIa is given as “non-competitive inhibition type”. Moreover, on human FXIIIa (compound 0.065 mM (1 μg)), the Kcat amounted to 91.1 ± 0.03 s⁻¹ and the Vmax is 0.146 ± 0.03 mU/min. For the same molecule, at human FXIIIa (compound 0.13 mM (2 μg)), the Kcat is 84.4 ± 0.06 s⁻¹ and the Vmax is 0.135 ± 0.02 mU/min. At human FXIIIa (compound 0.325 mM (5 μg)), the Kcat worked out at 80.1 ± 0.05 s⁻¹ and the Vmax worked out at 0.128 ± 0.03 mU/min. Besides, on human FXIIIa (compound 0.65 mM (10 μg)), the Kcat stood at 71.8 ± 0.07 s⁻¹ and the Vmax worked out at 0.115 ± 0.04 mU/min. Moreover, on human FXIIIa (compound 1.3 mM (20 μg)), the Kcat stood at 62.5 ± 0.04 s⁻¹ and the Vmax amounted to 0.100 ± 0.02 mU/min.

In the case of `COc1ccc(C(=O)O)cc1O` [IVA, isovanillic acid], in the test on human plasma, the “APTT, dependence on concentration” value is reported as “increased APTT in a concentration-dependent manner”; the “APTT, fold of control” value amounted to 1.70 fold; the “activated partial thromboplastin time (APTT)” value came to 67.0 ± 4.0 s. Moreover, in test [1], the “fibrin polymer/clot formation” value is given as “dose-dependently inhibited”. In test [2], the “inhibition of fibrin clot formation” value came out at 55.6 ± 1.7%. For the same molecule, at human FXIIIa, the FXIIIa activity result is reported as “significant reductions”, the IC50 amounted to 1920 µM, the Ki stood at 1920 µM and the Kik/Kiv was 10.4. Also, at human FXIIIa, the “inhibition type against FXIIIa” value was “non-competitive inhibition type”. In addition, on human FXIIIa (compound 0.065 mM (1 μg)), the Kcat turned out to be 89.3 ± 0.09 s⁻¹ and the Vmax was 0.143 ± 0.02 mU/min. At human FXIIIa (compound 0.13 mM (2 μg)), the Kcat amounted to 84.5 ± 0.07 s⁻¹ and the Vmax is listed as 0.135 ± 0.03 mU/min. For the same molecule, on human FXIIIa (compound 0.325 mM (5 μg)), the Kcat is 80.5 ± 0.05 s⁻¹ and the Vmax stood at 0.129 ± 0.04 mU/min. Also, on human FXIIIa (compound 0.65 mM (10 μg)), the Kcat stood at 80.5 ± 0.09 s⁻¹ and the Vmax amounted to 0.129 ± 0.03 mU/min. At human FXIIIa (compound 1.3 mM (20 μg)), the Kcat came to 68.7 ± 0.08 s⁻¹ and the Vmax was 0.110 ± 0.04 mU/min.
